Measurements reported in patent US8680290B2, “Isoxazoline derivatives and their use as herbicides” (Syngenta Limited, priority 2004, dated 2014).

Legend:
[1] = test system: Monocotyledonous and dicotyledonous test plants; assay: Example B1 herbicidal action, application post-emergence (Table B1a); type: in vivo; settings: 250 g/ha, evaluated after 3 weeks, scale 0-10
Method: (§1) Monocotyledonous and dicotyledonous test plants were sown in seed trays in standard soil. Immediately after sowing (pre-emergence) or after 8 to 9 days cultivation (post-emergence), the test compounds were applied by spraying in the form of an aqueous solution derived from the formulation of the technical active ingredient in 0.6 ml acetone and 45 ml formulation solution containing 10.6% Emulsogen EL (CAS RN 61791-12-6), 42.2% N-methylpyrrolidone, 42.2% dipropylene glycol monomethyl ether (CAS RN 34590-94-8) and 0.2% X-77 (CAS RN 11097-66-8). The test plants were then grown in a greenhouse under optimum conditions. After a test duration of 3 weeks (post-emergence) or 4 weeks (pre-emergence), the test was evaluated (10=total damage to plant, 0=no damage to plant).

[2] = test system: Monocotyledonous and dicotyledonous test plants; assay: Example B1 herbicidal action, application pre-emergence (Table B1b); type: in vivo; settings: 250 g/ha, evaluated after 4 weeks
Method: as §1

SMILES: CC1(C)CC(S(=O)(=O)C(F)(F)c2ccccc2[S+]([O-])C(F)(F)F)=NO1 (racemic) [1.69]
- herbicidal damage rating, Abutilon [1]: 4
- herbicidal damage rating, Amaranthus [1]: 3
- herbicidal damage rating, Digitaria [1]: 8
- herbicidal damage rating, Panicum [1]: 5
- herbicidal damage rating, Setaria [1]: 7
- herbicidal damage rating, Sida [1]: 5
- herbicidal action (damage rating 0-10), Amaranthus [2]: 5
- herbicidal action (damage rating 0-10), Digitaria [2]: 10
- herbicidal action (damage rating 0-10), Panicum [2]: 10
- herbicidal action (damage rating 0-10), Setaria [2]: 10
- herbicidal action (damage rating 0-10), Sida [2]: 4

SMILES: CC1(C)CC(S(=O)(=O)C(F)(Cl)c2ccccc2C#N)=NO1 (racemic) [1.71]
- herbicidal damage rating, Abutilon [1]: 0
- herbicidal damage rating, Amaranthus [1]: 5
- herbicidal damage rating, Digitaria [1]: 8
- herbicidal damage rating, Panicum [1]: 0
- herbicidal damage rating, Setaria [1]: 3
- herbicidal damage rating, Sida [1]: 2
- herbicidal action (damage rating 0-10), Amaranthus [2]: 10
- herbicidal action (damage rating 0-10), Digitaria [2]: 9
- herbicidal action (damage rating 0-10), Panicum [2]: 10
- herbicidal action (damage rating 0-10), Setaria [2]: 9
- herbicidal action (damage rating 0-10), Sida [2]: 5

SMILES: Cc1ccccc1C(F)(Cl)S(=O)(=O)C1=NOC(C)(C)C1 (racemic) [1.74]
- herbicidal damage rating, Abutilon [1]: 0
- herbicidal damage rating, Amaranthus [1]: 0
- herbicidal damage rating, Digitaria [1]: 8
- herbicidal damage rating, Panicum [1]: 5
- herbicidal damage rating, Setaria [1]: 3
- herbicidal damage rating, Sida [1]: 3
- herbicidal action (damage rating 0-10), Amaranthus [2]: 5
- herbicidal action (damage rating 0-10), Digitaria [2]: 9
- herbicidal action (damage rating 0-10), Panicum [2]: 10
- herbicidal action (damage rating 0-10), Setaria [2]: 9
- herbicidal action (damage rating 0-10), Sida [2]: 7

SMILES: CC1(C)CC(S(=O)(=O)C(F)(Cl)c2ccccc2)=NO1 (racemic) [1.75]
- herbicidal damage rating, Abutilon [1]: 5
- herbicidal damage rating, Amaranthus [1]: 3
- herbicidal damage rating, Digitaria [1]: 8
- herbicidal damage rating, Panicum [1]: 5
- herbicidal damage rating, Setaria [1]: 5
- herbicidal damage rating, Sida [1]: 4
- herbicidal action (damage rating 0-10), Amaranthus [2]: 10
- herbicidal action (damage rating 0-10), Digitaria [2]: 10
- herbicidal action (damage rating 0-10), Panicum [2]: 10
- herbicidal action (damage rating 0-10), Setaria [2]: 10
- herbicidal action (damage rating 0-10), Sida [2]: 7

SMILES: CC1(C)CC(S(=O)(=O)C(Br)c2c(F)cccc2C(F)(F)F)=NO1 (racemic) [1.80]
- herbicidal damage rating, Abutilon [1]: 4
- herbicidal damage rating, Amaranthus [1]: 0
- herbicidal damage rating, Digitaria [1]: 8
- herbicidal damage rating, Panicum [1]: 5
- herbicidal damage rating, Setaria [1]: 7
- herbicidal damage rating, Sida [1]: 5
- herbicidal action (damage rating 0-10), Amaranthus [2]: 10
- herbicidal action (damage rating 0-10), Digitaria [2]: 10
- herbicidal action (damage rating 0-10), Panicum [2]: 10
- herbicidal action (damage rating 0-10), Setaria [2]: 10
- herbicidal action (damage rating 0-10), Sida [2]: 9

SMILES: COC(=O)c1ccc(C(F)(F)S(=O)(=O)C2=NOC(C)(C)C2)c(F)c1 [1.119]
- herbicidal damage rating, Abutilon [1]: 3
- herbicidal damage rating, Amaranthus [1]: 5
- herbicidal damage rating, Digitaria [1]: 3
- herbicidal damage rating, Panicum [1]: 7
- herbicidal damage rating, Setaria [1]: 7
- herbicidal damage rating, Sida [1]: 4

SMILES: CCOC(=O)c1ccc(C(F)(Cl)S(=O)(=O)C2=NOC(C)(C)C2)c(F)c1 (stereo not shown) [1.128]
- herbicidal damage rating, Abutilon [1]: 2
- herbicidal damage rating, Amaranthus [1]: 5
- herbicidal damage rating, Digitaria [1]: 4
- herbicidal damage rating, Panicum [1]: 7
- herbicidal damage rating, Setaria [1]: 3
- herbicidal damage rating, Sida [1]: 0

SMILES: COc1ccccc1C(F)(Cl)S(=O)(=O)C1=NOC(C)(C)C1 (stereo not shown) [1.142]
- herbicidal damage rating, Abutilon [1]: 0
- herbicidal damage rating, Amaranthus [1]: 0
- herbicidal damage rating, Digitaria [1]: 8
- herbicidal damage rating, Panicum [1]: 7
- herbicidal damage rating, Setaria [1]: 5
- herbicidal damage rating, Sida [1]: 3

SMILES: CC1(C)CC(S(=O)(=O)C(F)(Cl)c2ccccc2-c2ccccc2)=NO1 (stereo not shown) [1.149]
- herbicidal damage rating, Abutilon [1]: 4
- herbicidal damage rating, Amaranthus [1]: 4
- herbicidal damage rating, Digitaria [1]: 5
- herbicidal damage rating, Panicum [1]: 5
- herbicidal damage rating, Setaria [1]: 3
- herbicidal damage rating, Sida [1]: 5

SMILES: COCCC(c1c(F)cccc1F)S(=O)(=O)C1=NOC(C)(C)C1 (stereo not shown) [Compound No. 1.03]
- herbicidal damage rating, Abutilon [1]: 0
- herbicidal damage rating, Amaranthus [1]: 9
- herbicidal damage rating, Digitaria [1]: 6
- herbicidal damage rating, Panicum [1]: 9
- herbicidal damage rating, Sida [1]: 5

SMILES: CC1(C)CC(S(=O)(=O)C(C(=O)C(F)F)c2c(F)cccc2F)=NO1 (stereo not shown) [Compound No. 1.57]
- herbicidal action (damage rating 0-10), Amaranthus [2]: 9
- herbicidal action (damage rating 0-10), Digitaria [2]: 8
- herbicidal action (damage rating 0-10), Panicum [2]: 10
- herbicidal action (damage rating 0-10), Setaria [2]: 8
- herbicidal action (damage rating 0-10), Sida [2]: 6

SMILES: C=C(OC(C)=O)C(Cl)(c1c(F)cccc1F)S(=O)(=O)C1=NOC(C)(C)C1 (stereo not shown) [Compound No. 1.58]
- herbicidal action (damage rating 0-10), Amaranthus [2]: 5
- herbicidal action (damage rating 0-10), Digitaria [2]: 8
- herbicidal action (damage rating 0-10), Panicum [2]: 9
- herbicidal action (damage rating 0-10), Setaria [2]: 7
- herbicidal action (damage rating 0-10), Sida [2]: 3

SMILES: CC1(C)CC(S(=O)(=O)C(C(=O)CCl)c2c(F)cccc2F)=NO1 (stereo not shown) [Compound No. 1.60]
- herbicidal action (damage rating 0-10), Amaranthus [2]: 7
- herbicidal action (damage rating 0-10), Digitaria [2]: 9
- herbicidal action (damage rating 0-10), Panicum [2]: 10
- herbicidal action (damage rating 0-10), Setaria [2]: 9
- herbicidal action (damage rating 0-10), Sida [2]: 0

SMILES: CC(=O)O/C(C)=C(/c1c(F)cccc1F)S(=O)(=O)C1=NOC(C)(C)C1 [Compound No. 1.98, acetic acid 2-(2,6-difluoro-phenyl)-2-(5,5-dimethyl-4,5-dihydroisoxazole-3-sulfonyl)-1-methyl-vinyl ester]
- herbicidal action (damage rating 0-10), Amaranthus [2]: 7
- herbicidal action (damage rating 0-10), Digitaria [2]: 8
- herbicidal action (damage rating 0-10), Panicum [2]: 9
- herbicidal action (damage rating 0-10), Setaria [2]: 9
- herbicidal action (damage rating 0-10), Sida [2]: 4

SMILES: COc1c(C(F)(F)S(=O)(=O)C2=NOC(C)(C)C2)c(C(F)(F)F)nn1C [Compound No. 2.23, 3-[difluoro-(5-methoxy-1-methyl-3-trifluoromethyl-1H-pyrazol-4-yl)-methanesulfonyl]-5,5-dimethyl-4,5-dihydroisoxazole]
- herbicidal action (damage rating 0-10), Amaranthus [2]: 8
- herbicidal action (damage rating 0-10), Digitaria [2]: 7
- herbicidal action (damage rating 0-10), Panicum [2]: 8
- herbicidal action (damage rating 0-10), Setaria [2]: 9
- herbicidal action (damage rating 0-10), Sida [2]: 3

SMILES: Cc1nn(C)c(OCC(F)(F)F)c1C(F)S(=O)(=O)C1=NOC(C)(C)C1 (stereo not shown) [Compound No. 2.24]
- herbicidal action (damage rating 0-10), Amaranthus [2]: 10
- herbicidal action (damage rating 0-10), Digitaria [2]: 10
- herbicidal action (damage rating 0-10), Setaria [2]: 10
- herbicidal action (damage rating 0-10), Sida [2]: 5

SMILES: Cn1nc(C(F)(F)F)c(C([S+]([O-])C2=NOC(C)(C)C2)C(F)(F)F)c1OCC(F)(F)F (stereo not shown) [Compound No. 2.35, 5,5-dimethyl-3-{2,2,2-trifluoro-1-[1-methyl-5-(2,2,2-trifluoro-ethoxy)-3-trifluoromethyl-1H-pyrazol-4-yl]-ethanesulfinyl}-4,5-dihydro-isoxazole]
- herbicidal action (damage rating 0-10), Amaranthus [2]: 10
- herbicidal action (damage rating 0-10), Digitaria [2]: 10
- herbicidal action (damage rating 0-10), Panicum [2]: 9
- herbicidal action (damage rating 0-10), Setaria [2]: 5
- herbicidal action (damage rating 0-10), Sida [2]: 0

SMILES: Cc1nsc(C#N)c1C(F)S(=O)(=O)C1=NOC(C)(C)C1 (stereo not shown) [Compound No. 3.01, 4-[(5,5-dimethyl-4,5-dihydroisoxazole-3-sulfonyl)-fluoromethyl]-3-methyl-isothiazole-5-carbonitrile]
- herbicidal action (damage rating 0-10), Amaranthus [2]: 7
- herbicidal action (damage rating 0-10), Digitaria [2]: 8
- herbicidal action (damage rating 0-10), Panicum [2]: 10
- herbicidal action (damage rating 0-10), Setaria [2]: 7
- herbicidal action (damage rating 0-10), Sida [2]: 0

SMILES: Cc1nsc(C#N)c1C(F)(F)S(=O)(=O)C1=NOC(C)(C)C1 [Compound No. 3.02, 4-[(5,5-dimethyl-4,5-dihydroisoxazole-3-sulfonyl)-difluoro-methyl]-3-methyl-isothiazole-5-carbonitrile]
- herbicidal action (damage rating 0-10), Amaranthus [2]: 7
- herbicidal action (damage rating 0-10), Digitaria [2]: 10
- herbicidal action (damage rating 0-10), Panicum [2]: 10
- herbicidal action (damage rating 0-10), Setaria [2]: 10
- herbicidal action (damage rating 0-10), Sida [2]: 0

SMILES: Cc1noc(C)c1C(Cl)S(=O)(=O)C1=NOC(C)(C)C1 (stereo not shown) [Compound No. 3.03]
- herbicidal action (damage rating 0-10), Amaranthus [2]: 7
- herbicidal action (damage rating 0-10), Digitaria [2]: 9
- herbicidal action (damage rating 0-10), Panicum [2]: 10
- herbicidal action (damage rating 0-10), Setaria [2]: 10
- herbicidal action (damage rating 0-10), Sida [2]: 0

SMILES: Cc1noc(C)c1C(Cl)(Cl)S(=O)(=O)C1=NOC(C)(C)C1 [Compound No. 3.04]
- herbicidal action (damage rating 0-10), Amaranthus [2]: 3
- herbicidal action (damage rating 0-10), Digitaria [2]: 9
- herbicidal action (damage rating 0-10), Panicum [2]: 10
- herbicidal action (damage rating 0-10), Setaria [2]: 9
- herbicidal action (damage rating 0-10), Sida [2]: 0

SMILES: COc1cc(C(Cl)S(=O)(=O)C2=NOC(C)(C)C2)on1 (stereo not shown) [Compound No. 5.01, 5-[chloro-(5,5-dimethyl-4,5-dihydroisoxazole-3-sulfonyl)-methyl]-3-methoxy-isoxazole]
- herbicidal action (damage rating 0-10), Amaranthus [2]: 0
- herbicidal action (damage rating 0-10), Digitaria [2]: 8
- herbicidal action (damage rating 0-10), Setaria [2]: 8
- herbicidal action (damage rating 0-10), Sida [2]: 2
